Reference: patent US9789114B2, “Compounds as HIF-1α inhibitors and manufacturing process thereof” (DONGGUK UNIVERSITY INDUSTRY-ACADEMIC COOPERATION FOUNDATION, priority 2011, dated 2017)
Where two headings read alike, the source gives them in different places. Blank lines part the entries; values can stand above or below the compound they belong to.

How the values were obtained:
HIF-1α = target: T1, HIF-1α (Homo sapiens, UniProt Q16665); assay: Inhibition of hypoxia-induced HIF-1α accumulation, western blot in HCT116 cells; type: cell-based; details: HCT116, hypoxia 1% O2, 0-30 μM, 12 hours, FIG. 1
T1 construct: endogenous in cells; host or cells: HCT116 human colon cancer cells (ATCC #CCL-247)
Experimental: <Experiment 2> In Vitro Studies for Inhibition of Hypoxia-Induced HIF-1α Accumulation
Inhibition of HIF-1α accumulation by the compounds according to the present invention was determined in HCT116 human colon cancer cells. In particular, western blot analysis was used to identify the compounds, I-3, I-6, I-8, I-16, I-19, I-22˜I-24, and I-27˜I-36, which inhibited HIF-1α accumulation under hypoxia.
(§1) First, HCT116 human colon cancer cells (ATCC #CCL-247) were plated at the concentration of 2×10^5 cells/ml. After 24 hours, the cells were incubated under hypoxia (1% O2, 94% N2, and 5% CO2, expressed as 1% O2 in FIG. 1) for 4 hours in order to induce HIF-la accumulation. Cells were treated with the compounds at various concentrations (0, 3, 10, 20, and 30 μM) for 12 hours under hypoxia. The cells were then harvested, and lysed in RIPA buffer to obtain nuclear extracts. Cells grown at 20% O2 (normoxia) were used as control groups to compare HIF-1α-mediated gene expression under each condition. 30 μg of the nuclear extracts per sample was separated by SDS-PAGE (sodium dodecyl sulfate-polyacrylamide gel electrophoresis), and was then transferred to PVDF (polyvinylidene fluoride membrane) membranes. After membranes were probed with HIF-1α antibodies (R&D System), HIF-1α proteins were detected with HRP-conjugated secondary antibodies (Amersham-Pharmacia). GAPDH (Glyceraldehyde 3-phosphate dehydrogenase) was used as an internal control for loading in western blot analysis.

[1] = test system: HIF-1α-mediated HRE transcriptional activity; assay: Assay for inhibition of HIF-1α-mediated transcriptional activity (HRE reporter assay); type: cell-based, human; details: Homo sapiens, HCT-116, HCT116 cells, 12 hours under hypoxia (1% O2), read-out: Inhibitory activity against HIF-1α (10 μM)
Experimental: <Experiment 1> Assay for Inhibition of HIF-1α-Mediated Transcriptional Activity (HRE Reporter Assay)
The compounds can be developed as anti-cancer drugs, because the compounds inhibiting HIF-1α-mediated HRE transcriptional activity induced by hypoxia can suppress the growth and metastasis of cancer.
Inhibitory effects of the compounds according to the present invention, from Formula I-1 to I-42, on HIF-1α-mediated transcriptional activity were evaluated using this assay. pGL3-HRE-luciferase vector was constructed as follows. Six copies of HRE (Hypoxia Responsive Element, 5′-ACGTG-3′) from human VEGF genes were inserted into the multi-cloning site of a pGL3-basic vector (Promega). A luciferase gene was used as a reporter gene.
In detail, HCT116(ATCC #CCL-247) human colon cancer cells were seeded in 48-well cell culture plates. The cells were co-transfected with 25 ng of pGL3-HRE-luciferase and 2.5 ng of Renila control vectors using Polyfect reagent next day. After 24 hours of incubation, the cells were incubated for an additional 4 hours with replaced cell culture media. The cells were treated with various concentrations (0, 1, 3, 5, 10, and 20 μM) of the above compounds according to the present invention and incubated for 12 hours under hypoxia (1% O2, 94% N2, and 5% CO2). The luciferase assay was performed using a dual-luciferase reporter assay system (Promega). After cell lysate preparation with RIPA buffer, induced luciferase activity under hypoxic conditions was determined to examine inhibitory effects of the compounds according to the present invention, from Formula I-1 to I-42, on HIF-1α-mediated transcriptional activity.

GAPDH = GAPDH expression level (internal control) in western blot, HCT116 cells; type: cell-based, human; details: HCT116, hypoxia 1% O2, 0-30 μM, 12 hours, FIG. 1
Experimental: as §1

[2] = Body weight change and side effects during 14 days of oral treatment in nude mice; type: in vivo, BALB/c nu/nu mice
Experimental: (§2) In vivo anti-cancer activity of the compounds according to the present invention, I-3, I-6, I-8, I-16, I-19, I-22, I-23, and I-24, was measured in mice to evaluate in vivo efficacy by oral administration. Specifically, the nude mice were divided into test groups and control groups, each consisting of 4 mice. In vivo efficacy was evaluated by measuring body weight, tumor volume, and tumor weight.
(§3) Female nude mice 6 weeks old (BALB/c nu/nu, Charles River) were bred in germ-free breeding rooms maintained at constant temperature and humidity. After the nude mice were anesthetized, HCT116 colon cancer cells were implanted at a count of […] cells/mouse into the rectum in BALB/c nu/nu mice and then the incisions were closed with surgical clips. The size of tumor was measured by a caliper. When the size of transplanted tumor reached to 50˜60 mm^3, the above compounds according to the present invention were administered. In more detail, after the above compounds in test groups were dissolved at concentration of 20 mg/kg in a solvent containing 80% of physiological saline, 10% of DMAC (dimethylacetamide), and 10% Tween 80 (hereinafter referred to as ‘Solvent A’), […] of dissolved compounds were orally administered once a day. Mice in control groups were treated with […] of Solvent A alone once daily.
(§4) Tumor volume and body weight were measured to identify in vivo anti-cancer activity of the compounds according to the present invention by repetitive oral administration. Tumor volume and tumor growth inhibition (TGI) in Table 2 were calculated according to the below Mathematic FIG. 1 and FIG. 2, respectively. Tumor growth inhibition was converted to a percentage in Table 2.
Moreover, severe side effects and statistically significant changes of body weight in all mice treated compounds were not shown for 14 days, comparing to control groups treated with vehicle. (Table 3)

[3] = test system: HCT116 colon cancer cells; assay: In vivo anti-cancer activity by oral administration, HCT116 tumor in nude mice; design: species or system BALB/c nu/nu mice; details: for inhibitory effects on tumor growth (TGI results): 20 mg/kg oral once a day, 14 days; for inhibition in vivo at 20 mg/kg: Mus musculus
Experimental: <Example 4> In Vivo Anti-Cancer Activity of Compounds by Oral Administration
as §2, §3, §4

[4] = test system: Chick embryo chorioallantoic membrane; assay: CAM (chick embryo chorioallantoic membrane) assay; type: in vivo; details: 10-20 μg on coverslip, 2 days, FIG. 2
Experimental: CAM (Chick embryo chorioallantoic membrane) assay was conducted as an in vivo model to determine whether the compounds according to the present invention, I-3, I-6, I-19, and I-22, had anti-angiogenic effects or not. DMSO-treated groups were used as negative controls.
According to the present invention, CAM assay was performed as follows.
Fertilized eggs were incubated periodically rolling at 37° C. with 50% humidity for 2-3 days. When eggs were erected, approximately 3 ml of albumin was extracted from the sharp edge of the eggs using a syringe. The hole of the eggs was sealed with a tape to prevent from dryness and contamination, and the hole of the eggs was put down and incubated for 2 to 3 days. After punching a hole with 1.5 cm diameter in the round part of eggs, opaque membrane was removed carefully. The compounds (10-20 μg) according to the present invention were placed and spread on thermanox coverslip equally to dry, and then the hole in the round part of eggs put on the upper part of the fertilized eggs that vessels grew. The eggs were examined under the dissecting microscope and the results were given in FIG. 2, after covering the hole with a coverglass to protect it from contamination for 2 days.

[5] = day 0, 20 mg/kg oral once a day
[6] = day 3, 20 mg/kg oral once a day
[7] = day 5, 20 mg/kg oral once a day
[8] = day 7, 20 mg/kg oral once a day
[9] = day 10, 20 mg/kg oral once a day
[10] = day 12, 20 mg/kg oral once a day
[11] = day 14, 20 mg/kg oral once a day
[12] = HCT-116, 72 h, day 3, 20 mg/kg oral once a day, read-out: TGI (tumor growth inhibition), tumor volume
[13] = HCT-116, 120 h, day 5, 20 mg/kg oral once a day, read-out: TGI (tumor growth inhibition), tumor volume
[14] = HCT-116, 168 h, day 7, 20 mg/kg oral once a day, read-out: TGI (tumor growth inhibition), tumor volume
[15] = HCT-116, 240 h, day 10, 20 mg/kg oral once a day, read-out: TGI (tumor growth inhibition), tumor volume
[16] = HCT-116, 288 h, day 12, 20 mg/kg oral once a day, read-out: TGI (tumor growth inhibition), tumor volume
[17] = HCT-116, 336 h, day 14, 20 mg/kg oral once a day, read-out: TGI (tumor growth inhibition), tumor volume
[18] = HCT-116, 336 h, day 14, 20 mg/kg oral once a day, read-out: TGI (tumor growth inhibition), tumor weight

T1 sequence (Q16665 whole entry): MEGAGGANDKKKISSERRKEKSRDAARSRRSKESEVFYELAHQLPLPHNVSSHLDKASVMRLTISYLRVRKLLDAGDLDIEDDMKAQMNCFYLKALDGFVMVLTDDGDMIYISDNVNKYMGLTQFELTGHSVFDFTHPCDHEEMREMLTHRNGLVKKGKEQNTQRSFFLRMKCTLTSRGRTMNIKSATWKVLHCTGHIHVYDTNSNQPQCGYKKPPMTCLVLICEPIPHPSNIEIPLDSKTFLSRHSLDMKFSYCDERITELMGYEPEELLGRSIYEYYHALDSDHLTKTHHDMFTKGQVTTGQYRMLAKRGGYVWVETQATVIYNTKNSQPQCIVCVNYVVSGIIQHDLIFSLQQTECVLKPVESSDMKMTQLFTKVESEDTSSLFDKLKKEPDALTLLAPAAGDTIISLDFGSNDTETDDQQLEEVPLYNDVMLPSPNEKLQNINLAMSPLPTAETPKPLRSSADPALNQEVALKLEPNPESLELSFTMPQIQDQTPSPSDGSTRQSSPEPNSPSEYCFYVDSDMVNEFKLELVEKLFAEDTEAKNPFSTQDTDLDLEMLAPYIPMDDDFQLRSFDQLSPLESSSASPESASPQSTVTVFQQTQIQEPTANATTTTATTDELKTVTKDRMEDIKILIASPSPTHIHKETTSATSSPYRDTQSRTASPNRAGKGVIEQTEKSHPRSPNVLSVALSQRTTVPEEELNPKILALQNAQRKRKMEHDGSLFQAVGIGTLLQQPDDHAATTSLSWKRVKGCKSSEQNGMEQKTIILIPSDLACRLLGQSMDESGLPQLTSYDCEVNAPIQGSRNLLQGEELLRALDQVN

Compound: CN1CCN(C(=O)COc2ccc(C34CC5CC(CC(C5)C3)C4)cc2)CC1 [Compound I-3, 2-(4-(Adamantan-1-yl)phenoxy)-1-(4-methylpiperazin-1-yl)ethanone]
HIF-1α degradation (HIF-1α): promoted HIF-1α degradation
inhibitory effects on HIF-1α accumulation (HIF-1α): significant inhibitory effects on HIF-1α accumulation
inhibition at 10 µM [1]: 76 to 100%
GAPDH expression levels (GAPDH): did not affect GAPDH expression levels
Body weight change [2, 5]: 100.0 ± 0.0%
Body weight change [2, 6]: 103.2 ± 2.8%
Body weight change [2, 7]: 104.7 ± 3.0%
Body weight change [2, 8]: 105.1 ± 2.8%
Body weight change [2, 9]: 104.6 ± 2.7%
Body weight change [2, 10]: 103.1 ± 2.7%
Body weight change [2, 11]: 103.7 ± 4.0%
inhibitory effects on tumor growth (TGI results) [3]: significant inhibitory effects on tumor growth
inhibition in vivo at 20 mg/kg [3, 12]: 33.2%
inhibition in vivo at 20 mg/kg [3, 13]: 35%
inhibition in vivo at 20 mg/kg [3, 14]: 36%
inhibition in vivo at 20 mg/kg [3, 15]: 41.6%
inhibition in vivo at 20 mg/kg [3, 16]: 44.1%
inhibition in vivo at 20 mg/kg [3, 17]: 49.2%
inhibition in vivo at 20 mg/kg [3, 18]: 51.5%
Tumor volume [3, 6]: 31.6 ± 5.0 mm^3
Tumor volume [3, 7]: 74.8 ± 11.7 mm^3
Tumor volume [3, 8]: 133.7 ± 14.8 mm^3
Tumor volume [3, 9]: 237.0 ± 24.9 mm^3
Tumor volume [3, 10]: 371.4 ± 36.2 mm^3
Tumor volume [3, 11]: 587.8 ± 48.4 mm^3
Tumor weight [3, 11]: 2074.2 ± 373.8 mg
formation of vessels (anti-angiogenic effect) [4]: inhibited formation of vessels

HIF-1α degradation (HIF-1α): promoted HIF-1α degradation
Compound: Cc1cc(C23CC4CC(CC(C4)C2)C3)ccc1OCC(=O)N1CCOCC1 [Compound I-6, 2-(4-(Adamantan-1-yl)-2-methylphenoxy)-1-morpholinoethanone]
inhibition at 10 µM [1]: 76 to 100%
GAPDH expression levels (GAPDH): did not affect GAPDH expression levels
Body weight change [2, 5]: 100.0 ± 0.0%
Body weight change [2, 6]: 103.4 ± 0.6%
Body weight change [2, 7]: 103.6 ± 2.6%
Body weight change [2, 8]: 103.8 ± 3.3%
Body weight change [2, 9]: 105.0 ± 3.1%
Body weight change [2, 10]: 103.8 ± 2.9%
Body weight change [2, 11]: 102.4 ± 3.0%
inhibition in vivo at 20 mg/kg [3, 12]: 25%
inhibition in vivo at 20 mg/kg [3, 13]: 24.1%
inhibition in vivo at 20 mg/kg [3, 14]: 26.5%
inhibition in vivo at 20 mg/kg [3, 15]: 28.4%
inhibition in vivo at 20 mg/kg [3, 16]: 28.1%
inhibition in vivo at 20 mg/kg [3, 17]: 28.4%
inhibition in vivo at 20 mg/kg [3, 18]: 28.1%
Tumor volume [3, 6]: 25.5 ± 7.5 mm^3
Tumor volume [3, 7]: 70.1 ± 9.7 mm^3
Tumor volume [3, 8]: 128.4 ± 14.0 mm^3
Tumor volume [3, 9]: 186.6 ± 15.2 mm^3
Tumor volume [3, 10]: 322.5 ± 19.6 mm^3
Tumor volume [3, 11]: 476.9 ± 28.1 mm^3
Tumor weight [3, 11]: 1703.3 ± 252.2 mg
formation of vessels (anti-angiogenic effect) [4]: inhibited formation of vessels

Compound: C[N+]1(C)CCN(C(=O)CCCOc2ccc(C34CC5CC(CC(C5)C3)C4)cc2)CC1.[I-] [Compound I-22, 4-(4-(4-(Adamantan-1-yl)phenoxy)butanoyl)-1,1-dimethylpiperazin-1-ium iodide]
inhibitory effects on HIF-1α accumulation (HIF-1α): significant inhibitory effects on HIF-1α accumulation
inhibition at 10 µM [1]: 51 to 75%
Body weight change [2, 5]: 100.0 ± 0.0%
Body weight change [2, 6]: 104.1 ± 3.5%
Body weight change [2, 7]: 104.1 ± 4.6%
Body weight change [2, 8]: 104.1 ± 3.3%
Body weight change [2, 9]: 105.6 ± 5.1%
Body weight change [2, 10]: 103.8 ± 3.6%
Body weight change [2, 11]: 102.7 ± 4.1%
inhibitory effects on tumor growth (TGI results) [3]: significant inhibitory effects on tumor growth
inhibition in vivo at 20 mg/kg [3, 12]: 39.8%
inhibition in vivo at 20 mg/kg [3, 13]: 40.8%
inhibition in vivo at 20 mg/kg [3, 14]: 43.4%
inhibition in vivo at 20 mg/kg [3, 15]: 45.1%
inhibition in vivo at 20 mg/kg [3, 16]: 45.1%
inhibition in vivo at 20 mg/kg [3, 17]: 47.8%
inhibition in vivo at 20 mg/kg [3, 18]: 49.5%
Tumor volume [3, 6]: 20.4 ± 1.1 mm^3
Tumor volume [3, 7]: 54.7 ± 2.8 mm^3
Tumor volume [3, 8]: 98.9 ± 4.8 mm^3
Tumor volume [3, 9]: 143.1 ± 6.2 mm^3
Tumor volume [3, 10]: 246.4 ± 10.8 mm^3
Tumor volume [3, 11]: 347.6 ± 11.8 mm^3
Tumor weight [3, 11]: 1197.3 ± 156.3 mg
formation of vessels (anti-angiogenic effect) [4]: inhibited formation of vessels
